Experiment [1] addresses T1, Histamine H3 receptor (Cavia porcellus, UniProt Q9JI35). The experiment in a line: Histamine H3 radioligand binding assay, guinea pig ileum ([3H]-R-α-methylhistamine). Details: The cortex was dissected, weighed and homogenised in ice-cold 20 mM Hepes-NaOH buffer; from tissue; host or cells: guinea pig cerebral cortex membranes. The following applies: guinea pig ileum longitudinal muscle myenteric plexus membranes; [3H]-R-α-methylhistamine 3 nM; typical variance ±0.12 log units; read-out: pKI (binding assay) - ileum (converted). On the procedure:
Histamine H3 Radioligand Binding Assay—Guinea Pig Ileum
Male Dunkin Hartley guinea pigs (200-300 g) were used. The small intestine was rapidly removed (cut ^˜5 cm from caecum and 5 cm from stomach) and placed in ice-cold 20 mM Hepes-NaOH buffer (pH7.4 at 21±3° C.). The tissue was cut into ^˜10 cm segments, flushed through with ice-cold 20 mM Hepes-NaOH buffer and placed in a beaker containing fresh buffer at 4° C. 10 cm segments of ileum were threaded onto a glass pipette and the longitudinal muscle myenteric plexus was peeled away from the circular muscle using damp cotton-wool. Longitudinal muscle myenteric plexus was immediately placed in ice-cold Viaspan® solution (^˜100 ml for tissue from 3 guinea pigs) and placed in the refrigerator for 24 hours.
Pre-soaked tissue was weighed and minced with scissors. The tissue was then homogenised in Viaspan® using a polytron (Kinematica AG; PT-DA 3020/2TS, 3×^˜1-2 s). 50 ml of 500 mM Tris HCl (pH6.9 at 21±3° C.) was added to the tissue and the mixture centrifuged at 39,800×g for 12 min at 4° C. The supernatant was discarded and rehomogenised in 100 ml ice-cold 20 mM Hepes-NaOH buffer (pH7.4 at 21±3° C.) using a teflon-in-glass homogeniser (setting 10; 3×). The homogenate was recentrifuged at 39,800×g and the pellet resuspended in 20 mM Hepes-NaOH buffer (pH7.4 at 21±3° C.), to a tissue concentration of 50 mg.ml^−1, using a polytron (Brinkman, PT10, 3×^˜1 s).
Guinea pig ileum longitudinal muscle myenteric plexus membranes (400 μl) were incubated for 165 min at 21±3° C. in a final volume of 500 μl with 20 mM Hepes-NaOH buffer containing [^3H]-R-α-methylhistamine (50 μl; 3 nM) and competing compound. Total and non-specific binding of [^3H]-R-α-methylhistamine were defined using 50 μl of buffer and 50 μl of 10 μM thioperamide, respectively. The assay was terminated by rapid filtration through Whatman GF/B filters, presoaked (2 hr) in 0.1% polyethyleneimine, using a Brandell Cell Harvester. The filters were washed (3×3 ml) with ice-cold 50 mM Tris-HCl (pH6.9 at 21±3° C.), transferred into scintillation vials, 5 ml liquid scintillation cocktail was added and after 4 hours the bound radioactivity was determined by counting (4 min) in a Beckman liquid scintillation counter.
Data are analysed using GraphPad prism and the general equation for a competition curve with variable Hill slope (nH). [formula]
X is the log concentration of competing compound,
Y is the binding obtained at each concentration of X,
pIC50 is the […] required to compete for half of the specific binding.
The IC50 is converted to the K1 using the Cheng Prusoff equation,
IC50 is the concentration of competitor required to compete for half the specific binding,
L is the radioligand concentration used,
KD is the equilibrium dissociation constant for the radioligand determined by saturation experiments.
Typical variance in this assay is ±0.12 log units.

For experiment [2], the target named is T1, Histamine H3 receptor. The experiment can be described thus: Histamine H3 radioligand binding assay, guinea pig cortex ([3H]-R-α-methylhistamine). Also on record: The cortex was dissected, weighed and homogenised in ice-cold 20 mM Hepes-NaOH buffer; from tissue; host or cells: guinea pig cerebral cortex membranes. The following applies: guinea pig cortex membranes; [3H]-R-α-methylhistamine 0.1 nM; typical variance ±0.12 log units; read-out: pKI (binding assay) - cortex (converted). On the procedure:
Histamine H3 Radioligand Binding Assay—Guinea Pig Cortex
Male Dunkin Hartley guinea pigs (200-300 g) were used. The whole brain was removed and immediately placed in ice-cold 20 mM Hepes-NaOH buffer (pH7.4 at 21±3° C.). The cortex was dissected, weighed and homogenised in ice-cold 20 mM Hepes-NaOH buffer (pH7.4 at 21±3° C.) (50 ml/guinea-pig cortex) using a polytron (Kinematica AG; PT-DA 3020/2TS, 3×3 s). The homogenate was centrifuged at 100×g for 5 min and the supernatants pooled and stored at 4° C. The pellets were rehomogenised in fresh ice-cold buffer (80 ml) and recentrifuged (100×g for 5 min). The supernatants were pooled and pellets rehomogenised and recentrifuged (100×g for 5 min). All supernatants were pooled and centrifuged at 39,800×g for 12 min at 4° C. The final pellet was resuspended in 20 mM Hepes-NaOH buffer (pH7.4 at 21±3° C.) to a tissue concentration of 7.5 mg.ml^−1, using a teflon-in-glass homogeniser.
Incubation Conditions and Data Analysis
These were essentially identical to those used for the guinea pig ileum myenteric plexus assay described above, except that the final assay concentration of [^3H]-R-α-methylhistamine was 0.1 nM. Typical variance in this assay is ±0.12 log units.

Experiment [3] concerns the target T1, Histamine H3 receptor. The experiment in a line: ileal longitudinal muscle, myenteric plexus functional assay (rightward shift of R-(α)-methylhistamine E/[A] curves, Schild). The experiment is classed as cell-based. Also on record: the longitudinal muscle layer and adhering myenteric plexus was teased away; from tissue; host or cells: guinea pig ileal longitudinal muscle with myenteric plexus (organ bath). The following applies: guinea pig ileum longitudinal muscle myenteric plexus, electrically stimulated; antagonism of R-(α)-methylhistamine; typical variance ±0.15 log units; read-out: pKB (functional assay) - ileum (converted). The method, then:
The biological activity of the compounds of the examples was measured using the ileal longitudinal muscle, myenteric plexus assay described by Paton and Aboo Zar (J. Physiol. 1968, 194, 13-33). Male Dunkin-Hartley guinea pigs (250-300 g) were employed. Briefly, a 50 cm portion of ileum proximal to the caecum was removed, after discarding the terminal 20 cm. Ileal segments (3 cm) were cleaned by passing Krebs-Henseleit buffer containing 3 μM mepyramine gently through the ileum using a Pasteur pipette (size: 13.8 cm length, 0.65 cm diameter). To avoid unnecessary damage to the tissue, Krebs-Henseleit buffer was passed through the ileal segment, while it was lying horizontally on a petri dish. Therefore, the ileum was not over-distended and the buffer flowed through with ease. Each segment was then passed over a Pasteur pipette and the longitudinal muscle layer and adhering myenteric plexus was teased away using moist cotton wool, by stroking tangentially away from the mesenteric attachment. The tissues were suspended in 20 ml organ baths containing Krebs-Henseleit buffer at 37±1° C. and gassed with 95% CO2/5% O2. The tissues were ligated to two parallel stainless steel wires, situated between two platinum electrodes (0.76 cm length, 0.06 cm diameter). All measurements were recorded isometrically (Grass FTO3 transducer). Following an initial loading tension of 1 g, the tissues were stimulated with electrical pulses at a frequency of 0.1 Hz and a pulse duration of 0.5 msec, as described by Kosterlitz & Watt (Br. J. Pharmacol. 1968, 266-276). Initially, the tissues were stimulated at supramaximal (1.3 fold times maximal) voltage for a period of 30 min and then the tissues were washed and re-stimulated. A “sighter dose” of the selective histamine H3-receptor agonist, R-(α)-methylhistamine (0.3 μM) (Arrang et al. Nature, 1987, 117-123), was administered. Upon generation of response, the “sighter dose” was removed from the tissues by “washout” (6 washes over 60 min) and during this period the electrical stimulation was switched off. The tissues were then re-stimulated and allowed to stabilise prior to the addition of drug treatments, which were allocated on a randomised block basis to the organ baths. Following the incubation period, a single cumulative E/[A] curve was obtained. The experimental E/[A] curve data was expressed as the percentage inhibition of the peak height of electrically-stimulated contraction. Antagonist affinity values were calculated from the degree of rightward shift of the R-(α)-methylhistamine E/[A] curves using Schild's methods (Arunlakshana & Schild Br. J. Pharmacol. 1959, 48-58). Typical variance in this assay is ±0.15 log units.

The structures appear in SMILES notation.

T1 sequence (Q9JI35 whole entry): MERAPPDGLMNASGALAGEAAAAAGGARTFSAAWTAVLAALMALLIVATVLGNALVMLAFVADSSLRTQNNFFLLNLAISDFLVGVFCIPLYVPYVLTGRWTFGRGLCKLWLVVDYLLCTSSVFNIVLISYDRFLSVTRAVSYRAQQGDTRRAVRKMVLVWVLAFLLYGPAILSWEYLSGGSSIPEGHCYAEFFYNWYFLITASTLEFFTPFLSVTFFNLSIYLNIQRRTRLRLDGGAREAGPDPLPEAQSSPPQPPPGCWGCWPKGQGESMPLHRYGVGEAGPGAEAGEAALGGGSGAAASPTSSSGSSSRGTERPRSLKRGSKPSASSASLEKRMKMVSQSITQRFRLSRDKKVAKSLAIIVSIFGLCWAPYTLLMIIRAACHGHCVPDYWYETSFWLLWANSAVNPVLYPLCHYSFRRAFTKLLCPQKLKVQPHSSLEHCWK

On to `O=S(=O)(CCCCCc1c[nH]cn1)CCc1ccc(Cl)cc1` [Example 26, [5-(1H-Imidazol-4-yl)pentyl] 4-chlorophenethyl sulfone], for which the results for the Ki on Histamine H3 receptor [1] and at Histamine H3 receptor [2] were 10.2 nM and 4.47 nM, respectively. Further, the Kb on Histamine H3 receptor [3] was 7.76 nM.

As to `O=S(=O)(CC(O)CCCc1c[nH]cn1)NCc1ccc(Cl)cc1` (centres unmarked) [Example 6, N-(4-Chlorobenzyl)-2-hydroxy-5-(1H-imidazol-4-yl)-1-pentanesulfonamide], the Ki was 12.6 nM at Histamine H3 receptor [1] and 5.01 nM on Histamine H3 receptor [2]. In addition, at Histamine H3 receptor [3], the Kb was 16.2 nM.

As to `O=S(=O)(CCCCCc1c[nH]cn1)Cc1ccc(Cl)cc1` [Example 27, [5-(1H-Imidazol-4-yl)pentyl] 4-chlorobenzyl sulfone], the Ki on Histamine H3 receptor [1] is 11.7 nM; at Histamine H3 receptor [2] it was 0.661 nM. The Kb on Histamine H3 receptor [3] was 14.1 nM.

As to `O=S(=O)(/C=C/CCc1c[nH]cn1)NCc1ccc(Cl)cc1` [Example 3, (E)-N-(4-Chlorobenzyl)-4-(1H-imidazol-4-yl)-1-but-1-enesulfonamide], the Ki is 10.2 nM at Histamine H3 receptor [1] and 2.75 nM on Histamine H3 receptor [2]. In addition, at Histamine H3 receptor [3], the Kb is 12.6 nM.

On to `O=S(=O)(CCCCCc1c[nH]cn1)NCc1ccc(Cl)cc1` [Example 5, N-(4-Chlorobenzyl)-5-(1H-imidazol-4-yl)-1-pentanesulfonamide], for which the Ki on Histamine H3 receptor [1] was 1.86 nM; at Histamine H3 receptor [2], 2.63 nM. Besides, at Histamine H3 receptor [3], the Kb was 3.47 nM.

With `O=S(=O)(CCCCc1c[nH]cn1)NCCc1ccc(Cl)cc1` [Example 9, N-(4-Chlorophenethyl)-4-(1H-imidazol-4-yl)-1-butanesulfonamide], the Ki at Histamine H3 receptor [2] is 44.7 nM. For the same compound, the Kb at Histamine H3 receptor [3] was 302 nM.

In the case of `O=S(=O)(CCCCCc1c[nH]cn1)NCC1CCCCC1` [Example 17, N-Cyclohexylmethyl-5-(1H-imidazol-4-yl)-1-pentanesulfonamide], the Ki at Histamine H3 receptor [2] is 21.9 nM. Moreover, on Histamine H3 receptor [3], the Kb is 46.8 nM.

On to `O=S(=O)(CCCCc1c[nH]cn1)NCc1ccc(Cl)cc1` [Example 1, N-(4-Chlorobenzyl)-4-(1H-imidazol-4-yl)-1-butanesulfonamide], for which the Ki was 8.51 nM at Histamine H3 receptor [1] and 2.63 nM at Histamine H3 receptor [2]. The Kb at Histamine H3 receptor [3] is 8.71 nM.

For `O=S(=O)(CC(O)CCCc1c[nH]cn1)NCCc1ccc(Cl)cc1` (centres unmarked) [Example 12, N-(4-Chlorophenethyl)-2-hydroxy-5-(1H-imidazol-4-yl)-1-pentanesulfonamide], the Ki at Histamine H3 receptor [1] was 60.3 nM; on Histamine H3 receptor [2] it was 14.1 nM. Besides, at Histamine H3 receptor [3], the Kb is 49 nM.

`Cc1ccc(CNS(=O)(=O)CCCCCc2c[nH]cn2)cc1` [Example 29, N-(4-Methylbenzyl)-5-(1H-imidazol-4-yl)-1-pentanesulfonamide]: the Ki on Histamine H3 receptor [2] is 6.17 nM. The Kb on Histamine H3 receptor [3] is 25.7 nM.

Take `O=S(=O)(CC(O)CCCc1c[nH]cn1)NCc1ccccc1Cl` (centres unmarked) [Example 20, N-(2-Chlorobenzyl)-2-hydroxy-5-(1H-imidazol-4-yl)-1-pentanesulfonamide]: on Histamine H3 receptor [2], the Ki was 126 nM. Moreover, the Kb on Histamine H3 receptor [3] was 331 nM.

On to `O=S(=O)(CCCCCc1c[nH]cn1)NCc1cccc(Cl)c1` [Example 21, N-(3-Chlorobenzyl)-5-(1H-imidazol-4-yl)-1-pentanesulfonamide], for which the Ki at Histamine H3 receptor [2] was 12 nM. Also, at Histamine H3 receptor [3], the Kb is 58.9 nM.

As for `O=S(=O)(CC(O)CCCc1c[nH]cn1)NCc1ccccc1` (centres unmarked) [Example 14, N-Benzyl-2-hydroxy-5-(1H-imidazol-4-yl)-1-pentanesulfonamide], the Ki at Histamine H3 receptor [2] is 81.3 nM. Also, at Histamine H3 receptor [3], the Kb was 724 nM.

For the compound `O=S(=O)(/C=C/CCCc1c[nH]cn1)NCc1ccc(Cl)cc1` [Example 32, (E)-N-(4-Chlorobenzyl)-5-(1H-imidazol-4-yl)-1-pent-1-enesulfonamide], the Ki at Histamine H3 receptor [2] was 5.89 nM. In addition, the Kb on Histamine H3 receptor [3] is 25.1 nM.

(Values after patent US6355665B1, “1H-4(5)-substituted imidazole derivatives, their preparation and their use as histamine H3 receptor ligands” (James Black Foundation Limited, priority 1997, dated 2002).)
